Measured values taken from patent publication US12590062B2, “PD-1/PD-L1 inhibitors” (Gilead Sciences, Inc., priority 2017, dated 2026).

How the values were obtained:
[1] = biological target: T1, interaction between the recombinant extracellular domain (ECD) of PD-1 and native cell-bound PD-L1 (Homo sapiens, UniProt Q9NZQ7); assay: CHO/PD-L1 cell capture assay; type: cell-based; settings: CHO cells overexpressing PD-L1, pre-incubated 1 hr with compound, captured on biotinylated Fc-PD-1 coated plates, 75 min at room temperature
T1 construct: expressed in transfected cells
Description: EC50-CHO/PD-L1-Capture Assay:
Compounds were tested in a cell capture assay to determine if they can specifically block the interaction between the recombinant extracellular domain (ECD) of PD-1 and native cell-bound PD-L1. Binding affinity of stable CHO cells overexpressing PD-L1 with its cognate recombinant ligand coated on plates was measured by counting the number of ‘captured’ cells. High-capacity streptavidin- coated plates were incubated with biotylated-Fc-PD-1 for 2 hours in PBS. Unbound ligand was washed out. CHO-PD-L1 cells (resuspended in PBS pH 7.4, 0.5 mM EDTA, and 2% bovine serum albumin) were pre-incubated for 1 hr with compound, dispensed into each PD-1 ECD coated well and then incubated for 75 min at room temperature. To stop the capture assay, a fixative/staining solution (final concentrations are 1.3% glutaraldehyde and 1.67 μM Draq5) was gently added to the cells and incubated for 2 hrs at room temperature. Unbound cells were then washed out and ‘captured’ cells were enumerated using a high-content microscopy system. EC50 values were calculated from the fit of the dose-response curves to a four-parameter equation. Representative data are shown below in Table 2.

PD-1/PD-L1 interaction = biological target: T2, PD-1/PD-L1 interaction (Homo sapiens, UniProt Q9NZQ7); assay: PD-1/PD-L1 NFAT reporter co-culture assay; type: cell-based; settings: Jurkat PD-1 NFAT-luciferase cells co-cultured with aAPC-PD-L1 CHO cells, 6 hrs at 37° C.; read-out: EC50 NFAT Luciferase
T2 construct: expressed in transfected cells; host or cells: CHO cells (aAPC-PD-L1) co-cultured with Jurkat cells overexpressing PD-1 and an NFAT-luciferase reporter
Method in brief: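 First, CHO cells displaying anti-CD3 antibody and PD-L1 were plated overnight. Next, compound-treated PD-1 Jurkat NFAT-luciferase reporter cells in 2% FBS RPMI were added for 6 h at 37 °C. Finally, ONE-Glo luminescence was read and EC50 values fitted with a four-parameter equation.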

PD-L1 = biological target: T3, PD-L1 (Homo sapiens, UniProt Q9NZQ7); assay: PD-L1/PD-L1 dimerization biochemical protein-protein interaction assay (ALPHA); type: binding; settings: compound-induced PD-L1 dimerization, head prints '1 nM' (0.5 nM His-tagged PD-L1 and 0.5 nM FLAG-tagged PD-L1), read-out: AC50 PDL1 Dimer Alpha 1 nM
T3 construct: determine if they can specifically dimerize the extracellular domains of PD-L1
Method in brief: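 After 2 h at 25 °C with compound, His- and FLAG-tagged PD-L1 ECDs (each 0.5 nM final; 25 mM Hepes pH 7.4, 150 mM NaCl) were detected by sequential anti-His acceptor and anti-FLAG donor bead incubations. Dose-response curves fitted to four-parameter equation for AC50.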

PD-1/PD-L1 = PD-1/PD-L1 (Homo sapiens, UniProt Q9NZQ7); assay: PD-1/PD-L1 biochemical protein-protein interaction assay (ALPHA); type: binding; settings: 0.3 nM His tagged PD-L1, 2.5 nM biotinylated Fc-PD-1, 60 minutes at 25° C., read-out: IC50 PD-L1-PD-1 Alpha IC50-mono PD-L1-fcP-D1
Method in brief: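 Bead proximity read-out: compound-driven loss of ALPHA signal between anti-His acceptor and streptavidin donor beads (20 μg/mL acceptor). Proteins: 0.3 nM His-PD-L1, 2.5 nM biotin-Fc-PD-1, final. 60 min, 25° C, Hepes pH 7.4 buffer. IC50 via four-parameter dose-response fit.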

T1 sequence (Q9NZQ7 19-290): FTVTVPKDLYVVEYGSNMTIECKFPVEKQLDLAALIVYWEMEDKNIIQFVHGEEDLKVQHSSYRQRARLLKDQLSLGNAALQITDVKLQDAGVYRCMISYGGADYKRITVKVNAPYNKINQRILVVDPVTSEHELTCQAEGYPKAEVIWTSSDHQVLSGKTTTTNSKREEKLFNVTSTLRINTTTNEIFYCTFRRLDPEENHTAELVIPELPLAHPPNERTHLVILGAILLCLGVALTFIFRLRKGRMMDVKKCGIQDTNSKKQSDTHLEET
T2 sequence (Q9NZQ7 19-290): as above
T3 sequence (Q9NZQ7 19-238 limits assumed): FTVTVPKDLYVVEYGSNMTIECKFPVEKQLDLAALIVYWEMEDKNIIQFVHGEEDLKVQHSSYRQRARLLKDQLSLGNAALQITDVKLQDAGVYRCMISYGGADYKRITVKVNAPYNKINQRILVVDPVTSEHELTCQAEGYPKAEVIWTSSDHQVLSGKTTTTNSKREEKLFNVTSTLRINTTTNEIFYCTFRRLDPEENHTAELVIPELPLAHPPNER
T3 sequence (Q9NZQ7 19-238 limits assumed): as above
PD-1/PD-L1, sequence (Q9NZQ7 19-238 limits assumed): as above

Row | EC50 [1] | EC50 (PD-1/PD-L1 interaction) | AC50 (PD-L1) | IC50 (PD-1/PD-L1) | SMILES
1 | 277 nM | 195 nM |  |  | COc1nc(OCc2cccc(-c3cccc(COc4nc(OC)c(CN[C@@H]5CC[C@H](C(=O)O)C5)cc4Cl)c3C)c2C)c(Cl)cc1CN[C@@H]1CC[C@H](C(=O)O)C1 [Example 185, (1S,1′S,3R,3′R)-3,3′-((((((2,2′-dimethyl-[1,1′-biphenyl]-3,3′-diyl)bis(methylene))bis(oxy))bis(5-chloro-2-methoxypyridine-6,3-diyl))bis(methylene))bis(azanediyl))bis(cyclopentane-1-carboxylic acid)]
2 | 63.6 nM | 362 nM |  |  | Cc1c(COc2nc(OCCC(N)=O)c(CNC[C@@H](O)CC(=O)O)cc2Br)cccc1-c1cccc(COc2nc(OCCC(N)=O)c(CNC[C@@H](O)CC(=O)O)cc2Br)c1C [Example 145, (3S,3′S)-4,4′-((((((2,2′-dimethyl-[1,1′-biphenyl]-3,3′-diyl)bis(methylene))bis(oxy))bis(2-(3-amino-3-oxopropoxy)-5-bromopyridine-6,3-diyl))bis(methylene))bis(azanediyl))bis(3-hydroxybutanoic acid)]
3 | 71.6 nM | 589 nM |  |  | COc1cc(OCc2cccc(-c3cccc(COc4cc(OCc5cncc(C#N)c5)c(CNCC(=O)O)cc4Cl)c3C)c2C)c(Cl)cc1CNCC(=O)O [Example 217, (4-((3′-((4-(((carboxymethyl)amino)methyl)-2-chloro-5-((5-cyanopyridin-3-yl)methoxy)phenoxy)methyl)-2,2′-dimethyl-[1,1′-biphenyl]-3-yl)methoxy)-5-chloro-2-methoxybenzyl)glycine]
4 | 124 nM | 274 nM |  |  | COc1nc(OCc2cccc(-c3cccc(COc4nc(OC)c(CNC[C@H](O)CC(=O)O)cc4Cl)c3C)c2C)c(Cl)cc1CNC[C@H](O)CC(=O)O [Example 49, (3R,3′R)-4,4′-((((((2,2′-dimethyl-[1,1′-biphenyl]-3,3′-diyl)bis(methylene))bis(oxy))bis(5-chloro-2-methoxypyridine-6,3-diyl))bis(methylene))bis(azanediyl))bis(3-hydroxybutanoic acid)]
5 | 10.3 nM | 57 nM |  |  | Cc1c(COc2cc(OCc3cncc(C#N)c3)c(CNC[C@@H](O)CC(=O)O)cc2Cl)cccc1-c1cccc(-c2ccc(OCCNC[C@@H](O)CC(=O)O)c(Cl)c2)c1C [Example 288, (S)-4-((4-((4″-(2-(((S)-3-carboxy-2-hydroxypropyl)amino)ethoxy)-3″-chloro-2,2′-dimethyl-[1,1′:3′,1″-terphenyl]-3-yl)methoxy)-5-chloro-2-((5-cyanopyridin-3-yl)methoxy)benzyl)amino)-3-hydroxybutanoic acid]
6 | 112 nM | 660 nM |  |  | CNC(=O)CCOc1nc(OCc2cccc(-c3cccc(COc4nc(OCCC(=O)NC)c(CNC[C@@H](O)CC(=O)O)cc4Cl)c3C)c2C)c(Cl)cc1CNC[C@@H](O)CC(=O)O [Example 134, (3S,3′S)-4,4′-((((((2,2′-dimethyl-[1,1′-biphenyl]-3,3′-diyl)bis(methylene))bis(oxy))bis(5-chloro-2-(3-(methylamino)-3-oxopropoxy)pyridine-6,3-diyl))bis(methylene))bis(azanediyl))bis(3-hydroxybutanoic acid)]
7 | 45.7 nM | 129 nM |  |  | Cc1c(COc2cc(OCc3cncc(C#N)c3)c(CNC[C@@H](O)CC(=O)O)cc2Cl)cccc1-c1cccc(-c2ccc(OCCNC[C@@H](O)CC(=O)O)cc2F)c1C [Example 111, (S)-4-((4-((4″-(2-(((S)-3-carboxy-2-hydroxypropyl)amino)ethoxy)-2″-fluoro-2,2′-dimethyl-[1,1′:3′,1″-terphenyl]-3-yl)methoxy)-5-chloro-2-((5-cyanopyridin-3-yl)methoxy)benzyl)amino)-3-hydroxybutanoic acid]
8 | 101 nM | 69 nM |  |  | C[C@](CO)(NCc1cc(Br)c(OCc2cccc(-c3cccc(COc4nc(OCc5cncc(C#N)c5)c(CN[C@](C)(CO)C(=O)O)cc4Br)c3Cl)c2Cl)nc1OCc1cncc(C#N)c1)C(=O)O [Example 198, (2R,2′R)-2,2′-((((((2,2′-Dichloro-[1,1′-biphenyl]-3,3′-diyl)bis(methylene))bis(oxy))bis(5-bromo-2-((5-cyanopyridin-3-yl)methoxy)pyridine-6,3-diyl))bis(methylene))bis(azanediyl))bis(3-hydroxy-2-methylpropanoic acid)]
9 | 132 nM | 444 nM |  |  | COc1nc(OCc2cccc(-c3cccc(COc4nc(OC)c(CN5CCC[C@@H]5C(=O)O)cc4Cl)c3C)c2C)c(Cl)cc1CN1CCC[C@@H]1C(=O)O [Example 234, (2′R)-(((((2,2′-dimethyl-[1,1′-biphenyl]-3,3′-diyl)bis(methylene))bis(oxy))bis(5-chloro-2-methoxypyridine-6,3-diyl))bis(methylene))di-D-proline]
10 | 315 nM | 1520 nM |  |  | COc1nc(OCc2cccc(-c3cccc(COc4nc(OC)c(CNC[C@@H](O)CC(=O)O)cc4C4CC4)c3C)c2C)c(C2CC2)cc1CNC[C@@H](O)CC(=O)O [Example 55, (3S,3′S)-4,4′-((((((2,2′-dimethyl-[1,1′-biphenyl]-3,3′-diyl)bis(methylene))bis(oxy))bis(5-cyclopropyl-2-methoxypyridine-6,3-diyl))bis(methylene))bis(azanediyl))bis(3-hydroxybutanoic acid)]
11 | 277 nM | 962 nM |  |  | COc1nc(OCc2cccc(-c3cccc(COc4nc(OC)c(CNC5(C#N)CCC5)cc4Cl)c3C)c2C)c(Cl)cc1CNC1(C#N)CCC1 [Example 231, 1,1′-((((((2,2′-dimethyl-[1,1′-biphenyl]-3,3′-diyl)bis(methylene))bis(oxy))bis(5-chloro-2-methoxypyridine-6,3-diyl))bis(methylene))bis(azanediyl))bis(cyclobutane-1-carbonitrile)]
12 | 79.7 nM | 290 nM |  |  | COc1nc(O[C@H]2CCc3c(-c4cccc5c4CC[C@@H]5Oc4nc(OC)c(CNC[C@@H](O)CC(=O)O)cc4Br)cccc32)c(Br)cc1CNCCO [Example 8, (S)-4-(((5-bromo-6-(((1S,1′S)-1′-((3-bromo-5-(((2-hydroxyethyl)amino)methyl)-6-methoxypyridin-2-yl)oxy)-2,2′,3,3′-tetrahydro-1H,1′H-[4,4′-biinden]-1-yl)oxy)-2-methoxypyridin-3-yl)methyl)amino)-3-hydroxybutanoic acid]
13 | 233 nM | 997 nM |  |  | COc1nc(OCc2cccc(-c3cccc(COc4nc(OC)c(CNC[C@H](O)CC(=O)O)cc4C4CC4)c3C)c2C)c(C2CC2)cc1CNC[C@H](O)CC(=O)O [Example 54, (3R,3′R)-4,4′-((((((2,2′-dimethyl-[1,1′-biphenyl]-3,3′-diyl)bis(methylene))bis(oxy))bis(5-cyclopropyl-2-methoxypyridine-6,3-diyl))bis(methylene))bis(azanediyl))bis(3-hydroxybutanoic acid)]
14 | 206 nM | 514 nM |  |  | COc1cc(OCc2cccc(-c3cccc(COc4cc(OCc5cncc(C#N)c5)c(CNC[C@H](O)C(=O)O)cc4Cl)c3C)c2C)c(Cl)cc1CNC[C@H](O)C(=O)O [Example 216, (S)-3-((4-((3′-((4-((((S)-2-carboxy-2-hydroxyethyl)amino)methyl)-2-chloro-5-((5-cyanopyridin-3-yl)methoxy)phenoxy)methyl)-2,2′-dimethyl-[1,1′-biphenyl]-3-yl)methoxy)-5-chloro-2-methoxybenzyl)amino)-2-hydroxypropanoic acid]
15 | 185 nM | 502 nM |  |  | COc1nc(O[C@H]2CCc3c(-c4cccc5c4CC[C@@H]5Oc4nc(OC)c(CNCCO)cc4Br)cccc32)c(Br)cc1CNCCO [Example 10, 2,2′-((((((1S,1′S)-2,2′,3,3′-tetrahydro-1H,1′H-[4,4′-biindene]-1,1′-diyl)bis(oxy))bis(5-bromo-2-methoxypyridine-6,3-diyl))bis(methylene))bis(azanediyl))bis(ethan-1-ol)]
16 |  | 66 nM | 16.1 nM | 0.064 nM | COc1nc(O[C@H]2CCc3c(-c4cccc(-c5ccc(C6=NCCN6)c(OC)n5)c4Cl)cccc32)c(Br)cc1CN1CCCC[C@H]1C(=O)O [Example 785]
